Results as given in ChEMBL document CHEMBL1201862, “PubChem BioAssay data set” (2004).
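Five concentrations, 48 hours, 96-well plates. GI50 marks 50% less growth.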 Calls of active or inactive are those of the source. Rule as the data show it: active = GI50 up to about 1.1 µM and inactive = higher.

Experiments:
Test in all cases: NCI-60 cell line screen, 48 h
SR = system: SR
ACHN = system: ACHN
SK-MEL-28 = system: SK-MEL-28
MOLT-4 = system: MOLT-4
SF-539 = system: SF-539
U-251 = system: U-251
SN12C = system: SN12C
MDA-MB-231 = system: MDA-MB-231
UACC-62 = system: UACC-62
CAKI-1 = system: CAKI-1
TK-10 = system: TK-10
NCI/ADR-RES = system: NCI/ADR-RES
MCF7 = system: MCF7
SF-295 = system: SF-295
SK-MEL-2 = system: SK-MEL-2
MDA-N = system: MDA-N
SK-OV-3 = system: SK-OV-3
Hs-578T = system: Hs-578T
LOX IMVI = system: LOX IMVI
HCC 2998 = system: HCC 2998

Measured: GI50

Cc1cccc(C)c1NC(=O)C(Cc1c[nH]c2ccccc12)NC(=O)OCc1ccccc1 (stereo not given)
inactive: SR 22.5 µM | ACHN 19.8 µM | SK-MEL-28 18.9 µM | MOLT-4 15.4 µM | SF-539 20.2 µM | U-251 19.5 µM | SN12C 21.5 µM | MDA-MB-231 16.7 µM | UACC-62 16.6 µM | CAKI-1 16.9 µM | TK-10 19.2 µM | NCI/ADR-RES 14.4 µM | MCF7 23.2 µM | SF-295 17 µM | SK-MEL-2 16.9 µM | MDA-N 15.7 µM | SK-OV-3 22.8 µM | Hs-578T 33.1 µM | LOX IMVI 19.5 µM

COc1cc(OC)c(OC)cc1/C=C/c1ccc2ccccc2n1
inactive: SR 3.57 µM | ACHN > 10 µM | SK-MEL-28 > 10 µM | MOLT-4 3.78 µM | SF-539 3.53 µM | U-251 > 10 µM | SN12C > 10 µM | MDA-MB-231 > 10 µM | UACC-62 6.44 µM | CAKI-1 > 10 µM | TK-10 > 10 µM | NCI/ADR-RES 7.6 µM | MCF7 9.57 µM | SF-295 9.71 µM | MDA-N 8.07 µM | SK-OV-3 > 10 µM | HCC 2998 > 10 µM | Hs-578T 3.44 µM | LOX IMVI > 10 µM

N#C/C(=C1\N=C(c2ccccc2O)Oc2ccccc21)c1ccc([N+](=O)[O-])cc1
inactive: ACHN > 100 µM | SK-MEL-28 > 100 µM | MOLT-4 > 100 µM | SF-539 66.5 µM | U-251 71.9 µM | SN12C > 100 µM | MDA-MB-231 > 100 µM | UACC-62 > 100 µM | CAKI-1 > 100 µM | TK-10 > 100 µM | NCI/ADR-RES > 100 µM | MCF7 > 100 µM | SF-295 72.3 µM | SK-MEL-2 > 100 µM | MDA-N > 100 µM | SK-OV-3 > 100 µM | HCC 2998 > 100 µM | Hs-578T 62.2 µM | LOX IMVI > 100 µM

CCC(=O)N1C(=O)C(CC)(CC)C(=O)N1C(=O)CC
inactive: SR > 100 µM | ACHN > 100 µM | SK-MEL-28 > 100 µM | MOLT-4 > 100 µM | U-251 > 100 µM | SN12C > 100 µM | MDA-MB-231 > 100 µM | UACC-62 > 100 µM | CAKI-1 > 100 µM | TK-10 > 100 µM | NCI/ADR-RES > 100 µM | MCF7 > 100 µM | SF-295 > 100 µM | SK-MEL-2 > 100 µM | MDA-N > 100 µM | SK-OV-3 > 100 µM | HCC 2998 > 100 µM | Hs-578T > 100 µM

CCOC(=O)c1c(SC(=O)C(C)(C)Oc2ccc(Cl)cc2)n(-c2ccccc2)c(=S)n(-c2ccccc2)c1=O
inactive: SR 23.9 µM | ACHN 23.3 µM | SK-MEL-28 62.5 µM | MOLT-4 24.9 µM | SF-539 22.9 µM | U-251 19.6 µM | SN12C 25.2 µM | MDA-MB-231 26.6 µM | UACC-62 67.8 µM | CAKI-1 > 100 µM | TK-10 89.5 µM | NCI/ADR-RES 58.6 µM | MCF7 21.5 µM | SF-295 59.2 µM | MDA-N 48.8 µM | SK-OV-3 45.6 µM | HCC 2998 > 100 µM | Hs-578T 26.9 µM | LOX IMVI 31.8 µM

CC(C)=Cc1cc(C)c2c(O)cc(C)c3c2c1C(C)=C(O)C3=O
inactive: SR 35.3 µM | ACHN 25.5 µM | MOLT-4 25.8 µM | SF-539 28.1 µM | U-251 32.7 µM | SN12C 32.9 µM | MDA-MB-231 24.9 µM | UACC-62 20.5 µM | CAKI-1 27 µM | NCI/ADR-RES 30.1 µM | MCF7 24.3 µM | SF-295 22.2 µM | SK-MEL-2 22.9 µM | MDA-N 33 µM | SK-OV-3 28.9 µM | Hs-578T 27 µM | LOX IMVI 20.1 µM

CN(C)CCNc1nc2c(c(=O)n(C)c(=O)n2C)n1C
inactive: SR > 100 µM | ACHN > 100 µM | SK-MEL-28 > 100 µM | MOLT-4 > 100 µM | SF-539 > 100 µM | U-251 > 100 µM | SN12C > 100 µM | MDA-MB-231 > 100 µM | UACC-62 > 100 µM | CAKI-1 > 100 µM | TK-10 > 100 µM | NCI/ADR-RES > 100 µM | MCF7 > 100 µM | SF-295 > 100 µM | MDA-N > 100 µM | SK-OV-3 > 100 µM | Hs-578T > 100 µM | LOX IMVI > 100 µM

O=C(O)C1C2C=CC(O2)C1C(=O)NCc1cccnc1 (stereo not given)
inactive: SR > 100 µM | ACHN > 100 µM | SK-MEL-28 > 100 µM | MOLT-4 > 100 µM | SF-539 > 100 µM | U-251 > 100 µM | SN12C > 100 µM | MDA-MB-231 > 100 µM | UACC-62 > 100 µM | CAKI-1 > 100 µM | TK-10 > 100 µM | NCI/ADR-RES > 100 µM | MCF7 > 100 µM | SF-295 > 100 µM | SK-MEL-2 > 100 µM | MDA-N > 100 µM | SK-OV-3 > 100 µM | Hs-578T 51.8 µM | LOX IMVI > 100 µM

CNc1cc(N)ccc1C(=O)N1CCC[C@H]1CO
inactive: SR > 100 µM | ACHN > 100 µM | SK-MEL-28 > 100 µM | MOLT-4 > 100 µM | SF-539 > 100 µM | U-251 > 100 µM | SN12C > 100 µM | MDA-MB-231 > 100 µM | UACC-62 > 100 µM | TK-10 > 100 µM | NCI/ADR-RES > 100 µM | MCF7 > 100 µM | SF-295 > 100 µM | SK-MEL-2 > 100 µM | MDA-N > 100 µM | SK-OV-3 > 100 µM | Hs-578T > 100 µM | LOX IMVI > 100 µM

COc1cc(CCN)c(OC)c(OC)c1
inactive: SR 50.8 µM | ACHN > 100 µM | SK-MEL-28 > 100 µM | MOLT-4 > 100 µM | U-251 > 100 µM | SN12C > 100 µM | MDA-MB-231 > 100 µM | UACC-62 > 100 µM | CAKI-1 > 100 µM | TK-10 > 100 µM | NCI/ADR-RES > 100 µM | MCF7 42.3 µM | SF-295 > 100 µM | SK-MEL-2 > 100 µM | MDA-N 39.2 µM | SK-OV-3 > 100 µM | Hs-578T > 100 µM | LOX IMVI > 100 µM

CC(=O)Oc1ccc2cc(-c3ccccc3OC(C)=O)c(=O)oc2c1
inactive: SR 7.69 µM | ACHN 30.7 µM | SK-MEL-28 38.6 µM | MOLT-4 6.92 µM | SF-539 59.3 µM | U-251 34 µM | SN12C 76 µM | MDA-MB-231 82.8 µM | NCI/ADR-RES 36.5 µM | MCF7 89.3 µM | SF-295 50.4 µM | SK-MEL-2 53.7 µM | MDA-N 49.5 µM | HCC 2998 48.1 µM | Hs-578T 56.5 µM | LOX IMVI 64.9 µM
